Data as given in patent publication US20260256751A1, “COMBINATION OF BETA-2-ADRENERGIC RECEPTOR AGONISTS AND GLP-1 RECEPTOR AGONISTS FOR USE IN TREATING HYPERGLYCAEMIA” (ATROGI AB, priority 2023, published 2026).

Tests used:
[1] = test system: differentiated L6-myotubes; assay: cAMP production relative to isoprenaline (Biological example 2 of WO 2019/053427); type: cell-based; conditions: 0.25 h, compound at 10 μM, activity relative to isoproterenol at 10 μM
Excerpt: For example, the level of cAMP production induced by a given compound can be determined by reference to the amount induced by a defined concentration of that compound relative to that induced by the same concentration of a reference compound, such as isoprenaline, using techniques known to those skilled in the art (e.g. following the protocol as described in the biological examples provided in WO 2019/053427, i.e. in cells, such as differentiated L6-myotubes, having been stimulated with isoprenaline or the compound with a final concentration of 1×10^−5 M, for 15 min in stimulation buffer, such as HBSS supplemented with 1% BSA, 5 mM HEPES and 1 mM IBMX, at pH 7.4).
(§1) Compounds described in publications referenced and incorporated herein were screened in accordance with the procedures outlined in Biological example 1 and Biological example 2 of WO 2019/053427.

[2] = test system: differentiated L6-myotubes; assay: Glucose uptake screen (Biological example 1 of WO 2019/053427); type: cell-based; conditions: compound at 10 μM, activity relative to isoproterenol at 10 μM, read-out: Biological example 1 of WO 2019/053427 (GU)
Protocol: as §1
L6-myoblasts were grown in Dulbecco's Modified Eagle's Medium (DMEM) containing 1 g/L glucose supplemented with 10% fetal bovine serum (FBS), 2 mM L-glutamine, 50 U/mL penicillin, […] streptomycin and 10 mM HEPES. Cells were plated at 1x 10^5 cells per mL in 24-well plates. After reaching 90% confluence the cells were grown in medium containing 2% FBS for 7 days where upon cells differentiated into myotubes. The differentiated L6-myotubes were serum-starved overnight in medium containing 0.5% fatty-acid free BSA and stimulated with Compound A at a final concentration of 1×10^−5 M in the presence of the selective β2-adrenergic receptor antagonist ICI-118551. After 1 h 40 min the cells were washed with warm, glucose free medium twice and another portion of agonist was added to the glucose free medium. After another 20 min of incubation the cells were exposed to 50 nM ^3H-2-deoxyglucose for 10 min before washed in ice cold glucose free medium three times and lysed in 400 µl/well 0.2 M NaOH for 1 h at 60° C. The cell lysate was mixed with 4 ml scintillation buffer (Emulsifier Safe, Perkin Elmer) and the radioactivity was detected in a P-counter (Tri-Carb 4810TR, Perkin Elmer).

## C[C@H]1CC[C@@H]([C@H](O)c2ccccc2)N1 (racemic) [Compound 38, Racemic mixture of (R)-[(2S,5S)-5-methyl-2-pyrrolidinyl]phenylmeth-anol and (S)-[(2R,5R)-5-methyl-2-pyrrolidinyl]phenylmeth-anol]
[1]
  Emax at 10 µM: < 25%
[2]
  Emax at 10 µM: 25 to 50%

## C[C@H]1CC[C@@H]([C@@H](O)c2ccccc2)N1 (racemic) [Compound 39, Racemic mixture of (R)-[(2R,5R)-5-methyl-2-pyrrolidinyl]phenylmeth-anol and (S)-[(2S,5S)-5-methyl-2-pyrrolidinyl]phenylmeth-anol]
[1]
  Emax at 10 µM: < 25%
[2]
  Emax at 10 µM: 50 to 75%

## C[C@H]1CC[C@@H]([C@H](O)c2cccc(O)c2)N1 (racemic) [Compound 40, Racemic mixture of m-{(R)-[(2S,5S)-5-methyl-2-pyrrolidinyl]hydroxymeth-yl}phenol and m-{(S)-[(2R,5R)-5-methyl-2-pyrrolidinyl]hydroxymeth-yl}phenol]
[1]
  Emax at 10 µM: < 25%
[2]
  Emax at 10 µM: 50 to 75%

## C[C@H]1CC[C@@H]([C@@H](O)c2cccc(O)c2)N1 (racemic) [Compound 41, Racemic mixture of m-{(R)-[(2R,5R)-5-methyl-2-pyrrolidinyl]hydroxymeth-yl}phenol and m-{(S)-[(2S,5S)-5-methyl-2-pyrrolidinyl]hydroxymeth-yl}phenol]
[1]
  Emax at 10 µM: < 25%
[2]
  Emax at 10 µM: > 75%

## CCCCNCC(O)c1ccc(O)cc1 (stereo not shown) [Compound 1, 2-(butylamino)-1-(p-hydroxyphenyl)-1-ethanol]
[1]
  Emax at 10 µM: < 25%
[2]
  Emax at 10 µM: > 75%

## CCCCNCC(O)c1cccc(Cl)c1 (stereo not shown) [Compound 2, 2-(butylamino)-1-(m-chlorophenyl)-1-ethanol]
[1]
  Emax at 10 µM: < 25%
[2]
  Emax at 10 µM: 25 to 50%

## Oc1ccc(C(O)CNCC2CC2)cc1 (stereo not shown) [Compound 3, p-{2-[(cyclopropylmethyl)ami-no]-1-hydroxyethyl}phenol]
[1]
  Emax at 10 µM: < 25%
[2]
  Emax at 10 µM: 50 to 75%

## CC(C)(C)NCC(O)c1ccc(O)cc1 (stereo not shown) [Compound 4, 2-(tert-butylamino)-1-(p-hydroxyphenyl)-1-ethanol]
[1]
  Emax at 10 µM: 25 to 50%
[2]
  Emax at 10 µM: > 75%

## CCC(C)NCC(O)c1ccc(O)cc1 (stereo not shown) [Compound 5, 2-(sec-butylamino)-1-(p-hydroxyphenyl)-1-ethanol]
[1]
  Emax at 10 µM: < 25%
[2]
  Emax at 10 µM: 50 to 75%

## Oc1ccc(C(O)CNCC2CCCCC2)cc1 (stereo not shown) [Compound 6, 2-[(cyclohexylmethyl)ami-no]-1-(p-hydroxyphenyl)-1-ethanol]
[1]
  Emax at 10 µM: < 25%
[2]
  Emax at 10 µM: > 75%

## OC(CNCC1CCCCC1)c1ccccc1 (stereo not shown) [Compound 7, 2-[(cyclohexylmethyl)ami-no]-1-phenyl-1-ethanol]
[1]
  Emax at 10 µM: < 25%
[2]
  Emax at 10 µM: 25 to 50%

## CCCC(C)NCC(O)c1ccc(O)cc1 (stereo not shown) [Compound 8, 1-(p-hydroxyphenyl)-2-(1-methylbutylamino)-1-ethanol]
[1]
  Emax at 10 µM: 25 to 50%
[2]
  Emax at 10 µM: 50 to 75%

## CCCCNC[C@H](O)c1ccc(O)cc1 [Compound 9, (R)-2-(butylamino)-1-(p-hydroxyphenyl)-1-ethanol]
[1]
  Emax at 10 µM: < 25%
[2]
  Emax at 10 µM: > 75%

## Oc1ccc(C(O)CNC2CCCC2)cc1 (stereo not shown) [Compound 10, p-[2-(cyclopentylamino)-1-hydroxyethyl]phenol]
[1]
  Emax at 10 µM: < 25%
[2]
  Emax at 10 µM: 50 to 75%

## Oc1ccc(C(O)CNC23CC4CC(CC(C4)C2)C3)cc1 (stereo not shown) [Compound 11, p-[2-(1-adamantanylamino)-1-hydroxyethyl]phenol]
[1]
  Emax at 10 µM: < 25%
[2]
  Emax at 10 µM: 25 to 50%

## CCCCNC(C)C(O)c1ccc(O)cc1 (stereo not shown) [Compound 12, 2-(butylamino)-1-(p-hydroxyphenyl)-1-propanol]
[1]
  Emax at 10 µM: < 25%
[2]
  Emax at 10 µM: 50 to 75%

## CCCC(C)NC(C)C(O)c1ccc(O)cc1 (stereo not shown) [Compound 13, 1-(p-hydroxyphenyl)-2-(1-methylbutylamino)-1-propanol]
[1]
  Emax at 10 µM: < 25%
[2]
  Emax at 10 µM: 50 to 75%

## CCCC(C)NCC(O)c1cccc(O)c1 (stereo not shown) [Compound 14, 1-(m-hydroxyphenyl)-2-(1-methylbutylamino)-1-ethanol]
[1]
  Emax at 10 µM: < 25%
[2]
  Emax at 10 µM: > 75%

## CCCCNCC(O)c1cccc(O)c1 (stereo not shown) [Compound 15, 2-(butylamino)-1-(m-hydroxyphenyl)-1-ethanol]
[1]
  Emax at 10 µM: < 25%
[2]
  Emax at 10 µM: 50 to 75%

## Oc1ccc(C(O)CNCCC2CCCCC2)cc1 (stereo not shown) [Compound 16, 2-(2-cyclohexylethylamino)-1-(p-hydroxyphenyl)-1-ethanol]
[1]
  Emax at 10 µM: < 25%
[2]
  Emax at 10 µM: 25 to 50%

## CCCCCCNCC(O)c1ccc(O)cc1 (stereo not shown) [Compound 17, 2-(hexylamino)-1-(p-hydroxyphenyl)-1-ethanol]
[1]
  Emax at 10 µM: < 25%
[2]
  Emax at 10 µM: 25 to 50%

## CCCCCCCCNCC(O)c1ccc(O)cc1 (stereo not shown) [Compound 18, 1-(p-hydroxyphenyl)-2-(octylamino)-1-ethanol]
[1]
  Emax at 10 µM: < 25%
[2]
  Emax at 10 µM: 25 to 50%

## CCCC(C)NCC(O)c1ccc(O)c(Cl)c1 (stereo not shown) [Compound 19, 1-(3-chloro-4-hydroxyphenyl)-2-(1-methylbutylamino)-1-ethanol]
[1]
  Emax at 10 µM: < 25%
[2]
  Emax at 10 µM: 25 to 50%

## CCCCNCC(O)c1ccc(O)c(Cl)c1 (stereo not shown) [Compound 20, 2-(butylamino)-1-(3-chloro-4-hydroxyphenyl)-1-ethanol]
[1]
  Emax at 10 µM: < 25%
[2]
  Emax at 10 µM: 25 to 50%

## Oc1ccc(C(O)CNCCCC2CCCCC2)cc1 (stereo not shown) [Compound 21, 2-(3-cyclohexylpropylamino)-1-(p-hydroxyphenyl)-1-ethanol]
[1]
  Emax at 10 µM: < 25%
[2]
  Emax at 10 µM: > 75%

## CCCC(C)NCC(O)c1cc(Cl)c(N)c(Cl)c1 (stereo not shown) [Compound 22, 1-(4-amino-3,5-dichlorophenyl)-2-(1-methylbutylamino)-1-ethanol]
[1]
  Emax at 10 µM: 50 to 75%
[2]
  Emax at 10 µM: > 75%

## CCCCNCC(O)c1cc(Cl)c(O)c(Cl)c1 (stereo not shown) [Compound 23, 2-(butylamino)-1-(3,5-dichloro-4-hydroxyphenyl)-1-ethanol]
[1]
  Emax at 10 µM: < 25%
[2]
  Emax at 10 µM: < 25%

## Oc1ccc(C(O)CNCCC2CC2)cc1 (stereo not shown) [Compound 24, p-[2-(2-cyclopropylethylamino)-1-hydroxyethyl]phenol]
[1]
  Emax at 10 µM: < 25%
[2]
  Emax at 10 µM: 50 to 75%

## CCCC(C)NCC(O)c1cc(Cl)c(O)c(Cl)c1 (stereo not shown) [Compound 25, 1-(3,5-dichloro-4-hydroxyphenyl)-2-(1-methylbutylamino)-1-ethanol]
[1]
  Emax at 10 µM: < 25%
[2]
  Emax at 10 µM: < 25%

## CCCCNCC(O)c1cc(O)cc(O)c1 (stereo not shown) [Compound 26, 5-[2-(butylamino)-1-hydroxyethyl]resorcinol]
[1]
  Emax at 10 µM: < 25%
[2]
  Emax at 10 µM: 50 to 75%

## CCC[C@@H](C)NC[C@H](O)c1ccc(O)cc1 [Compound 27, (R)-2-[(R)-1-methylbutylamino]-1-(p-hydroxyphenyl)-1-ethanol]
[1]
  Emax at 10 µM: 25 to 50%
[2]
  Emax at 10 µM: > 75%

## CCC[C@@H](C)NC[C@H](O)c1cccc(O)c1 [Compound 28, (R)-2-[(R)-1-methylbutylamino]-1-(m-hydroxyphenyl)-1-ethanol]
[1]
  Emax at 10 µM: 50 to 75%
[2]
  Emax at 10 µM: > 75%

## CCCCNCC(O)c1cc(Cl)c(N)c(Cl)c1 (stereo not shown) [Compound 29, 1-(4-amino-3,5-dichlorophenyl)-2-(butylamino)-1-ethanol]
[1]
  Emax at 10 µM: 25 to 50%
[2]
  Emax at 10 µM: > 75%

## Oc1ccc(C(O)CNCCCC(F)(F)F)cc1 (stereo not shown) [Compound 31, 1-(p-hydroxyphenyl)-2-(4,4,4-trifluorobutylamino)-1-ethanol]
[2]
  Emax at 10 µM: 50 to 75%
